Laboratory results as given in the OligoGym collection.
HELM strings list units from the 5' end as sugar, base in round brackets, then linkage (d deoxyribose, r ribose, m 2'-O-methyl, p phosphodiester). Strings are as the collection lists them; they lack the last nucleoside at the 3' end of the tested compound. [moe] = 2'-O-(2-methoxyethyl) (MOE); [sp] = phosphorothioate linkage; [m5C] = 5-methylcytosine

Target: SCN2A
Assay: mouse, dose not given
Conditions: ASO

**Q.** For “RNA1{[moe](G)[sp].[moe](A)p.[moe](A)p.[moe](T)p.d(T)[sp].d([m5C])[sp].d(T)[sp].d(A)[sp].d(T)[sp].d(T)[sp].d(T)[sp].d(T)[sp].d(A)[sp].d(T)[sp].[moe](A)p.[moe](A)p.[moe](A)p.[moe](T)[sp].[moe](G)}$$$$ (last 3' nucleoside missing)”, which 3 h FOB score is on record?
**A.** 0.67 score 0-7

**Q.** With “RNA1{[moe](A)[sp].[moe](T)p.[moe]([m5C])p.[moe](A)p.[moe](T)p.[moe](G)p.d([m5C])[sp].d(A)[sp].d(T)[sp].d(A)[sp].d(A)[sp].d(T)[sp].d([m5C])[sp].d([m5C])[sp].d([m5C])[sp].d(A)[sp].[moe](T)p.[moe](T)[sp].[moe](A)}$$$$ (last 3' nucleoside missing)” as the substance, how does the 3 h FOB score read?
**A.** 0 score 0-7

**Q.** Which 3 h FOB score does the source give for “RNA1{[moe](A)[sp].[moe]([m5C])p.[moe]([m5C])p.[moe]([m5C])p.[moe](A)[sp].d(G)[sp].d(T)[sp].d(T)[sp].d(T)[sp].d(T)[sp].d(T)[sp].d(T)[sp].d([m5C])[sp].[moe](A)p.[moe](T)p.[moe](T)[sp].[moe](G)}$$$$ (last 3' nucleoside missing)” here?
**A.** 1.33 score 0-7

**Q.** How did the 3 h FOB score turn out when “RNA1{[moe](T)[sp].[moe](T)p.[moe]([m5C])p.[moe](T)p.[moe](A)p.d(T)[sp].d(T)[sp].d(T)[sp].d(T)[sp].d(A)[sp].d(T)[sp].d(A)[sp].d(A)[sp].d(A)[sp].d(T)[sp].[moe](G)p.[moe]([m5C])p.[moe]([m5C])[sp].[moe](G)}$$$$ (last 3' nucleoside missing)” was run?
**A.** 0 score 0-7

**Q.** With “RNA1{[moe]([m5C])[sp].[moe](T)p.[moe](A)p.[moe](T)[sp].d(T)[sp].d(T)[sp].d(T)[sp].d(A)[sp].d(T)[sp].d(A)[sp].d(A)[sp].d(A)[sp].[moe](T)p.[moe](G)p.[moe]([m5C])p.[moe]([m5C])[sp].[moe](G)}$$$$ (last 3' nucleoside missing)” as the substance, how does the 3 h FOB score read?
**A.** 0 score 0-7

**Q.** “RNA1{[moe](T)[sp].[moe](G)p.[moe]([m5C])p.[moe](A)p.d(T)[sp].d(A)[sp].d(A)[sp].d(T)[sp].d([m5C])[sp].d([m5C])[sp].d([m5C])[sp].d(A)[sp].d(T)[sp].d(T)[sp].[moe](A)p.[moe](T)p.[moe](A)p.[moe]([m5C])[sp].[moe](A)}$$$$ (last 3' nucleoside missing)” was tested. Which 3 h FOB score did it give?
**A.** 0 score 0-7

**Q.** How did the 3 h FOB score turn out when “RNA1{[moe](A)[sp].[moe](T)p.[moe](G)p.[moe](T)p.[moe](A)p.d(A)[sp].d(T)[sp].d([m5C])[sp].d(A)[sp].d([m5C])[sp].d(T)[sp].d(T)[sp].d(T)[sp].d([m5C])[sp].d(A)[sp].[moe](T)p.[moe]([m5C])p.[moe]([m5C])[sp].[moe](A)}$$$$ (last 3' nucleoside missing)” was run?
**A.** 0 score 0-7

**Q.** With “RNA1{[moe]([m5C])[sp].[moe](T)p.[moe]([m5C])p.[moe](T)p.d(T)[sp].d(T)[sp].d([m5C])[sp].d(T)[sp].d(T)[sp].d(A)[sp].d(T)[sp].d(T)[sp].d(T)[sp].d([m5C])[sp].[moe](T)p.[moe](G)p.[moe](T)p.[moe](T)[sp].[moe](T)}$$$$ (last 3' nucleoside missing)” as the substance, how does the 3 h FOB score read?
**A.** 0 score 0-7

**Q.** “RNA1{[moe]([m5C])[sp].[moe]([m5C])p.[moe](A)p.[moe]([m5C])p.d(G)[sp].d(A)[sp].d([m5C])[sp].d(A)[sp].d(T)[sp].d(A)[sp].d(T)[sp].d(T)[sp].d(T)[sp].d(T)[sp].[moe](T)p.[moe]([m5C])p.[moe](T)p.[moe](A)[sp].[moe]([m5C])}$$$$ (last 3' nucleoside missing)” was tested. Which 3 h FOB score did it give?
**A.** 1 score 0-7

**Q.** For “RNA1{[moe](G)[sp].[moe]([m5C])p.[moe](A)p.[moe](T)p.[moe](A)p.[moe](A)p.d(T)[sp].d([m5C])[sp].d([m5C])[sp].d([m5C])[sp].d(A)[sp].d(T)[sp].d(T)[sp].d(A)[sp].d(T)[sp].d(A)[sp].[moe]([m5C])p.[moe](A)[sp].[moe](A)}$$$$ (last 3' nucleoside missing)”, which 3 h FOB score is on record?
**A.** 0 score 0-7

**Q.** Which 3 h FOB score does the source give for “RNA1{[moe](T)[sp].[moe](A)p.[moe](A)p.[moe](T)p.d([m5C])[sp].d(A)[sp].d([m5C])[sp].d(T)[sp].d(T)[sp].d(T)[sp].d([m5C])[sp].d(A)[sp].d(T)[sp].d([m5C])[sp].[moe]([m5C])p.[moe](A)p.[moe]([m5C])p.[moe](G)[sp].[moe](A)}$$$$ (last 3' nucleoside missing)” here?
**A.** 0 score 0-7

**Q.** “RNA1{[moe](T)[sp].[moe](G)p.[moe](T)p.[moe](A)p.[moe](A)p.[moe]([m5C])p.d([m5C])[sp].d(T)[sp].d(T)[sp].d(T)[sp].d(A)[sp].d(T)[sp].d(A)[sp].d([m5C])[sp].d(A)[sp].d(T)[sp].[moe](T)p.[moe](T)[sp].[moe](A)}$$$$ (last 3' nucleoside missing)” was tested. Which 3 h FOB score did it give?
**A.** 0 score 0-7

**Q.** With “RNA1{[moe](T)[sp].[moe](G)p.[moe](G)p.[moe](A)p.[moe]([m5C])p.d([m5C])[sp].d(G)[sp].d(T)[sp].d([m5C])[sp].d(T)[sp].d([m5C])[sp].d(T)[sp].d(T)[sp].d(T)[sp].d([m5C])[sp].[moe](T)p.[moe](T)p.[moe](A)[sp].[moe](T)}$$$$ (last 3' nucleoside missing)” as the substance, how does the 3 h FOB score read?
**A.** 1 score 0-7

**Q.** For “RNA1{[moe](A)[sp].[moe]([m5C])p.[moe]([m5C])p.[moe](G)p.[moe](A)p.d(A)[sp].d(T)[sp].d(T)[sp].d([m5C])[sp].d(T)[sp].d(A)[sp].d(T)[sp].d(T)[sp].d(T)[sp].d(T)[sp].[moe](A)p.[moe](T)p.[moe](A)[sp].[moe](A)}$$$$ (last 3' nucleoside missing)”, which 3 h FOB score is on record?
**A.** 1.67 score 0-7

**Q.** Which 3 h FOB score does the source give for “RNA1{[moe](G)[sp].[moe](T)p.[moe](A)p.[moe](A)p.d(T)[sp].d([m5C])[sp].d(A)[sp].d([m5C])[sp].d(T)[sp].d(T)[sp].d(T)[sp].d([m5C])[sp].d(A)[sp].d(T)[sp].[moe]([m5C])p.[moe]([m5C])p.[moe](A)p.[moe]([m5C])[sp].[moe](G)}$$$$ (last 3' nucleoside missing)” here?
**A.** 2 score 0-7

**Q.** How did the 3 h FOB score turn out when “RNA1{[moe](G)[sp].[moe](T)p.[moe]([m5C])p.[moe](T)p.[moe]([m5C])p.[moe](T)p.d(T)[sp].d(T)[sp].d([m5C])[sp].d(T)[sp].d(T)[sp].d(A)[sp].d(T)[sp].d(T)[sp].d(T)[sp].d([m5C])[sp].[moe](T)p.[moe](G)[sp].[moe](T)}$$$$ (last 3' nucleoside missing)” was run?
**A.** 1 score 0-7

**Q.** Which 3 h FOB score does the source give for “RNA1{[moe](T)[sp].[moe]([m5C])p.[moe](T)p.[moe]([m5C])p.d(T)[sp].d(T)[sp].d(T)[sp].d([m5C])[sp].d(T)[sp].d(T)[sp].d(A)[sp].d(T)[sp].d(T)[sp].d(T)[sp].[moe]([m5C])p.[moe](T)p.[moe](G)p.[moe](T)[sp].[moe](T)}$$$$ (last 3' nucleoside missing)” here?
**A.** 0 score 0-7

**Q.** For “RNA1{[moe](A)[sp].[moe](T)p.[moe](T)p.[moe]([m5C])p.d(T)[sp].d(A)[sp].d(T)[sp].d(T)[sp].d(T)[sp].d(T)[sp].d(A)[sp].d(T)[sp].d(A)[sp].d(A)[sp].[moe](A)p.[moe](T)p.[moe](G)p.[moe]([m5C])[sp].[moe]([m5C])}$$$$ (last 3' nucleoside missing)”, which 3 h FOB score is on record?
**A.** 2.67 score 0-7

**Q.** Which 3 h FOB score does the source give for “RNA1{[moe]([m5C])[sp].[moe](A)p.[moe](T)p.[moe](G)p.[moe]([m5C])p.d(A)[sp].d(T)[sp].d(A)[sp].d(A)[sp].d(T)[sp].d([m5C])[sp].d([m5C])[sp].d([m5C])[sp].d(A)[sp].d(T)[sp].[moe](T)p.[moe](A)p.[moe](T)[sp].[moe](A)}$$$$ (last 3' nucleoside missing)” here?
**A.** 0 score 0-7
